Our source for the IC50 values is patent US11560374B2, “Morpholinylpyridone compounds” (Sprint Bioscience AB, priority 2017, dated 2023).

In one assay the target is Vps34 enzyme (Homo sapiens (Human), UniProt Q8NEB9). Nature of the assay: Vps34 Biochemical Assay (Adapta kinase assay). The settings on record: 20 μM ATP and 200 μM PI:PS substrate mix, 1 h at room temperature, TR-FRET, read-out: Median IC50 nM Adapta. Here is the method: Dilution series of compounds of the invention were prepared in DMSO at 100 times the final assay concentration (n1=n0/3 in 10 points). The compounds were further diluted to 4 times the assay concentration in assay buffer (Life technologies buffer Q, PV5125, diluted 5 times supplemented with 2 mM DTT and 2 mM MnCl2). 2.5 μl of the diluted compounds were added to a 384 well assay plate followed by 2.5 μl of 16.5 nM Vps34 enzyme (Life technologies, PV5126). Enzyme and compounds were pre-incubated at rt for 15 min. Then 5 μl of substrate mix containing 20 μM ATP (Life technologies, PV3227) and 200 μM PI:PS substrate (Life technologies, PV5122) in assay buffer was added to the wells containing compound and enzyme. Mixing was performed by pipetting several times. The reaction was incubated at room temperature for 1 h. Then 5 μl stop-detection mix, prepared as described in the Adapta kinase assay kit instructions (Life technologies, PV5099) containing Adapta Eu-anti-ADP antibody (2.3 nM), Alexa Fluor 647 ADP tracer (9 nM) and EDTA (30 mM) in TR-FRET buffer, was added to quench the reaction. Mixing was performed by pipetting several times. The assay plate was then incubated at room temperature for 30 min and read with Artemis micro plate reader. Percent inhibition of the compounds as compared to DMSO treated control samples was calculated. By the use of Dotmatics software compound concentration versus percent inhibition was fitted to generate IC50 values.
Background: Time-resolved FRET reads energy transfer from a long-lived donor to a nearby acceptor.

The subject of assay [1] is autophagy in HOS cells (GFP-LC3). Nature of the assay: High Content Screening Autophagy Assay (GFP-LC3 foci). Format: cell-based. The note with it: Homo sapiens; HOS cells expressing GFP-LC3; autophagy activated with KU-0063794 500 nM and Bafilomycin A1 5 nM; 6 hours; foci area per cell; read-out: Median IC50 nM Cellular assay (HOS-LC3). The method, then:
Human osteosarcoma cells (HOS) stably expressing a Green Fluorescent Protein (GFP) tagged LC3 (GFP-LC3) were used to determine the inhibitory effect on autophagy of proprietary compounds. For that purpose, autophagy was activated by using the mTOR inhibitor KU-0063794 at 500 nM in the presence of Bafilomycin A1 (Sigma-Aldrich) at 5 nM. Shortly, cells were plated overnight in clear bottom 96-well plates in DMEM-High Modified media (Hi-Clone Cat #SH30285.01). At the start of the experiment, the media was removed and replaced with fresh media containing the mTOR inhibitor, Bafilomycin A1 and the vehicle or a test compound as indicated. After 6 hours the media was removed, cells were washed twice with ice-cold phosphate buffered saline (PBS) and fixed with 4% paraformaldehyde for 20 minutes at room temperature. Then the cells were washed twice with ice-cold PBS before adding Hoechst 33342 at 1 μg/ml in PBS for nuclear staining. After incubation overnight at 4° C., cells were washed once with PBS to remove the excess of dye and 100 μl of PBS was added to each well. Images were acquired at 20× magnification, 6 images per well, using the ImageXpress automated microscope (Molecular Devices Inc.) and analyzed with MetaXpress software to identify LC3-GFP foci. Foci area per cell values were used to generate dose response curves and IC50 values were calculated using the non-linear fitting analysis in GraphPad Prism software. […] The results of the assay are shown in Table 2 (Median IC50 nM HOS-LC3).

A value given as a limit tells only on which side of the number the result lay.

Sequence of Vps34 enzyme (Q8NEB9 whole entry): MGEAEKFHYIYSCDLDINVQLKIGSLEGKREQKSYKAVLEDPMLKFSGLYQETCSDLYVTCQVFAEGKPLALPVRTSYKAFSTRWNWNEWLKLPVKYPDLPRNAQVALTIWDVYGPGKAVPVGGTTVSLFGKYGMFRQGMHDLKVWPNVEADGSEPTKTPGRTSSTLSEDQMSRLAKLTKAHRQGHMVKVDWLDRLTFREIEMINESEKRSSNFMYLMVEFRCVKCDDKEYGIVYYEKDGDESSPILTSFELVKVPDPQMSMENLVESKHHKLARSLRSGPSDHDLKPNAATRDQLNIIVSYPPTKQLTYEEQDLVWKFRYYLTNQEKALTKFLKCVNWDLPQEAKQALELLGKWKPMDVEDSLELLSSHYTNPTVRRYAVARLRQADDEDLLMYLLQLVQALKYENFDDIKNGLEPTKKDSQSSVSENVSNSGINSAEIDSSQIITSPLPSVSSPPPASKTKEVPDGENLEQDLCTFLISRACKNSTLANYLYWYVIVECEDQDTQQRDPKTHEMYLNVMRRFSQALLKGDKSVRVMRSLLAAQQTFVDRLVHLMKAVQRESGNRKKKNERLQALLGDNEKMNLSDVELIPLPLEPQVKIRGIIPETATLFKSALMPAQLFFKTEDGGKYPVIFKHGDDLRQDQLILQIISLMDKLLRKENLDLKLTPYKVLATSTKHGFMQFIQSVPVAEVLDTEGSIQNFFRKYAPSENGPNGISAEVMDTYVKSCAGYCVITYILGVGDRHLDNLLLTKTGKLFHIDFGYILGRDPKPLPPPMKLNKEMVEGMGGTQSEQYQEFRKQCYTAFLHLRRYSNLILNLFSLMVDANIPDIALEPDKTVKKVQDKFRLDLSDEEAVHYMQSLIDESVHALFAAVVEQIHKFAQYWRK

For the compound `C[C@@H]1COCCN1c1cc(N2CCN(S(=O)(=O)N3CCCC3)CC2C(F)(F)F)[nH]c(=O)c1` (stereo partly drawn) [Example 14, 4-[(3R)-3-methylmorpholin-4-yl]-6-[4-pyrrolidin-1-ylsulfonyl-2-(trifluoromethyl)piperazin-1-yl]-1H-pyridin-2-one], the IC50 at Vps34 enzyme was under 5 nM. As to `C[C@@H]1COCCN1c1cc(N2CCN(S(=O)(=O)N3CCCCC3)CC2C(F)(F)F)[nH]c(=O)c1` (stereo partly drawn) [Example 26, 4-[(3R)-3-methylmorpholin-4-yl]-6-[4-(1-piperidylsulfonyl)-2-(trifluoromethyl)piperazin-1-yl]-1H-pyridin-2-one], the values for the IC50 (on Vps34 enzyme; in assay [1]) were under 5 nM and 139 nM, respectively. For `C[C@@H]1COCCN1c1cc(N2CCN(S(=O)(=O)C3(C)CC3)CC2C(F)(F)F)[nH]c(=O)c1` (stereo partly drawn) [Example 31, 6-[4-(1-methylcyclopropyl)sulfonyl-2-(trifluoromethyl)piperazin-1-yl]-4-[(3R)-3-methylmorpholin-4-yl]-1H-pyridin-2-one], the IC50 on Vps34 enzyme is under 5 nM.

As to `C[C@@H]1COCCN1c1cc(-c2ccc(S(=O)(=O)N(C)C)cc2C(F)(F)F)[nH]c(=O)c1` [Example 35, N,N-dimethyl-4-[4-[(3R)-3-methylmorpholin-4-yl]-6-oxo-1H-pyridin-2-yl]-3-(trifluoromethyl)benzenesulfonamide], the IC50 is under 5 nM on Vps34 enzyme and 458 nM in assay [1]. For the compound `C[C@@H]1COCCN1c1cc(N2CCN(S(=O)(=O)c3ccc(F)cc3)CC2C(F)(F)F)[nH]c(=O)c1` (stereo partly drawn) [Example 20, 6-[4-(4-Fluorophenyl)sulfonyl-2-(trifluoromethyl)piperazin-1-yl]-4-[(3R)-3-methylmorpholin-4-yl]-1H-pyridin-2-one], the 50% inhibitory concentration (IC50) was under 5 nM at Vps34 enzyme and 223 nM in assay [1]. In the same order, the values of `C[C@@H]1COCCN1c1cc(N2CCN(S(=O)(=O)Cc3ccc(F)cc3)CC2C(F)(F)F)[nH]c(=O)c1` (stereo partly drawn) [Example 8, 6-[4-[(4-Fluorophenyl)methylsulfonyl]-2-(trifluoromethyl)piperazin-1-yl]-4-[(3R)-3-methylmorpholin-4-yl]-1H-pyridin-2-one] are under 5 nM and 12 nM. In the case of `C[C@@H]1COCCN1c1cc(N2CCN(S(=O)(=O)N(C)C)CC2C(F)(F)F)[nH]c(=O)c1` (stereo partly drawn) [Example 16, N,N-dimethyl-4-[4-[(3R)-3-methylmorpholin-4-yl]-6-oxo-1H-pyridin-2-yl]-3-(trifluoromethyl)piperazine-1-sulfonamide], the values for the half-inhibitory concentration (IC50) (at Vps34 enzyme; in assay [1]) were under 5 nM and 17 nM, respectively. On to `C[C@@H]1COCCN1c1cc(N2CCN(S(=O)(=O)C3CC3)CC2C(F)(F)F)[nH]c(=O)c1` (stereo partly drawn) [Example 24, 6-[4-Cyclopropylsulfonyl-2-(trifluoromethyl)piperazin-1-yl]-4-[(3R)-3-methylmorpholin-4-yl]-1H-pyridin-2-one], for which the IC50 in assay [1] was determined as 28 nM. For the compound `C[C@@H]1COCCN1c1cc(N2CCN(S(C)(=O)=O)CC2C(F)(F)F)[nH]c(=O)c1` (single isomer, unassigned) [Example 6-1], the half-maximal inhibitory concentration (IC50) was under 5 nM at Vps34 enzyme and 33 nM in assay [1].

For `COCCS(=O)(=O)N1CCN(c2cc(N3CCOC[C@H]3C)cc(=O)[nH]2)C(C(F)(F)F)C1` (stereo partly drawn) [Example 18, 6-[4-(2-Methoxyethylsulfonyl)-2-(trifluoromethyl)piperazin-1-yl]-4-[(3R)-3-methylmorpholin-4-yl]-1H-pyridin-2-one], the IC50 was under 5 nM at Vps34 enzyme and 83 nM in assay [1].

Take `C[C@@H]1COCCN1c1cc(N2CCN(S(=O)(=O)C3CCOC3)CC2C(F)(F)F)[nH]c(=O)c1` (stereo partly drawn) [Example 12, 4-[(3R)-3-methylmorpholin-4-yl]-6-[4-tetrahydrofuran-3-ylsulfonyl-2-(trifluoromethyl)piperazin-1-yl]-1H-pyridin-2-one]: the IC50 on Vps34 enzyme was under 5 nM; in assay [1], 55 nM. As to `C[C@@H]1COCCN1c1cc(N2CCN(S(=O)(=O)c3ccnn3C)CC2C(F)(F)F)[nH]c(=O)c1` (stereo partly drawn) [Example 22, 4-[(3R)-3-methylmorpholin-4-yl]-6-[4-(2-methylpyrazol-3-yl)sulfonyl-2-(trifluoromethyl)piperazin-1-yl]-1H-pyridin-2-one], in assay [1], the IC50 was 95 nM.

For the compound `C[C@@H]1COCCN1c1cc(N2CCN(S(=O)(=O)c3cncc(F)c3)CC2C(F)(F)F)[nH]c(=O)c1` (stereo partly drawn) [Example 10, 6-[4-[(5-Fluoro-3-pyridyl)sulfonyl]-2-(trifluoromethyl)piperazin-1-yl]-4-[(3R)-3-methylmorpholin-4-yl]-1H-pyridin-2-one], the 50% inhibitory concentration (IC50) on Vps34 enzyme is under 5 nM; in assay [1] it was 106 nM.

As to `C[C@@H]1COCCN1c1cc(N2CCN(S(C)(=O)=O)CC2C(F)(F)F)[nH]c(=O)c1` (single isomer, unassigned) [Example 6-2], the 50% inhibitory concentration (IC50) on Vps34 enzyme came to 15 nM. As to `C[C@@H]1COCCN1c1cc(-c2ccc(S(C)(=O)=O)cc2C(F)(F)F)[nH]c(=O)c1` [Example 33, 4-[(3R)-3-methylmorpholin-4-yl]-6-[4-methylsulfonyl-2-(trifluoromethyl)phenyl]-1H-pyridin-2-one], the half-maximal inhibitory concentration (IC50) on Vps34 enzyme is under 5 nM; in assay [1] it was 491 nM.

With `C[C@@H]1COCCN1c1cc(N2CCN(S(=O)(=O)N3CCOCC3)CC2C(F)(F)F)[nH]c(=O)c1` (stereo partly drawn) [Example 28, 4-[(3R)-3-methylmorpholin-4-yl]-6-[4-morpholinosulfonyl-2-(trifluoromethyl)piperazin-1-yl]-1H-pyridin-2-one], the 50% inhibitory concentration (IC50) in assay [1] came out at 248 nM.

As for `Cc1nc(S(=O)(=O)N2CCN(c3cc(N4CCOC[C@H]4C)cc(=O)[nH]3)C(C(F)(F)F)C2)cn1C` (stereo partly drawn) [Example 30, 6-[4-(1,2-Dimethylimidazol-4-yl)sulfonyl-2-(trifluoromethyl)piperazin-1-yl]-4-[(3R)-3-methylmorpholin-4-yl]-1H-pyridin-2-one], the results for the half-inhibitory concentration (IC50) (at Vps34 enzyme; in assay [1]) were under 5 nM and 84 nM, respectively.

A word on the IC50: it is the concentration at which inhibition is half-maximal.
